Our source for the EC50 and Ki values is patent US11390624B2, “Pyrazolopyridines and triazolopyridines as A2A / A2B inhibitors” (Incyte Corporation, priority 2019, dated 2022).

The structures appear in SMILES notation. pEC50, pKi: −log10 of the molar value. Bounds are passed on as bounds.

The target of test [1] is human adenosine A2B receptor (Homo sapiens (Human), UniProt P29275). In words: Adenosine A2B Receptor Cyclic AMP GS Assay. The test is classed as cell-based. The following applies: HEK-293 cells, agonist NECA at 12 nM, cAMP accumulation; read-out: A2B—cAMP_EC50. Here is the method:
Stably transfected HEK-293 cells expressing the human adenosine A2B receptor (Perkin Elmer) were maintained in MEM culture medium with 10% FBS and 100 μg/mL Geneticin (Life Technologies). 18 to 24 hours prior to assay, geneticin was removed from culture. The cisbio cAMP-GS Dynamic kit utilizing the FRET (Fluorescence Resonance Energy Transfer) technology was used to measure cAMP accumulation in the cells. Compounds of the present disclosure at an appropriate concentration were mixed with 10000 cells/well in white 96 well half area plates (Perkin Elmer) for 30 min at room temperature gently shaking. Agonist, NECA (R&D Technologies) at 12 nM was added to each well for 60 min at room temperature gently shaking. Detection reagents, d2-labeled cAMP (acceptor) and anti-cAMP cryptate (donor) were added to each well for 60 min at RT gently shaking. Plates were read on Pherastar (BMG Labtech), fluorescence ratio 665/620 was calculated and EC50 determination was performed by fitting the curve of percent of control versus the log of the compound concentration using GraphPad Prism.

For test [2], the target named is Adenosine A2A receptor (Tag-lite Adenosine A2A labeled cells) (Homo sapiens (Human), UniProt P29274). In words: A2A Tag-lite HTRF Assay. The test is classed as binding. Particulars: displacement of Adenosine A2A Receptor Red antagonist fluorescent ligand, 12.5 nM. An excerpt: The final concentration of DMSO was 1%.
Chain of Adenosine A2A receptor (Tag-lite Adenosine A2A labeled cells) (P29274 whole entry): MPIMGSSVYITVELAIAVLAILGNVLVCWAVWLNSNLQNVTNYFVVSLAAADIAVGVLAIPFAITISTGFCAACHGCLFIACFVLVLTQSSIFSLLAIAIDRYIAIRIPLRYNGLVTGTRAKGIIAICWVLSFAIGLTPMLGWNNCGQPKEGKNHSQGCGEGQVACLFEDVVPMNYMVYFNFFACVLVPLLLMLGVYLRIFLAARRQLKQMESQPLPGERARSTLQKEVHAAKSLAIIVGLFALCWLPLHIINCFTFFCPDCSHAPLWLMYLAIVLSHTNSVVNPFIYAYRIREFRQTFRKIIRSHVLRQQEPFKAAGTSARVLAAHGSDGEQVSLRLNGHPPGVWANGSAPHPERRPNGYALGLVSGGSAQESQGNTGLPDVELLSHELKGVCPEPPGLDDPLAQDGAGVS

Chain of human adenosine A2B receptor (P29275 whole entry): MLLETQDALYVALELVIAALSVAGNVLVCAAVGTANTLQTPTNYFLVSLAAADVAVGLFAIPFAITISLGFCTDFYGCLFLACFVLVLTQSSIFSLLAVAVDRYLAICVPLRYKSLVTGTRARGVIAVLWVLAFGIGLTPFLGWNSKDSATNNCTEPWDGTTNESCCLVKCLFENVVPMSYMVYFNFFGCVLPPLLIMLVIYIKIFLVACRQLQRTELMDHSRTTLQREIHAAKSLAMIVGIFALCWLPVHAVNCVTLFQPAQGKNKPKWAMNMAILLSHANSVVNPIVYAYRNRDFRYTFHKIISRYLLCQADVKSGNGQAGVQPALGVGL

As a reminder, the pKi is −log10 of the Ki, conventionally taken in molar units. With `Cc1ncoc1-c1c(-c2cccc(C#N)c2)nc(N)c2nn(Cc3ncccc3F)nc12` [Example 36, 3-(4-amino-2-((3-fluoropyridin-2-yl)methyl)-7-(4-methyloxazol-5-yl)-2H-[1,2,3]triazolo[4,5-c]pyridin-6-yl)benzonitrile], the pEC50 in test [1] is ≥ 8.00. The pKi in test [2] was ≥ 8.00.

Consider `N#Cc1cccc(-c2nc(N)c3nn(Cc4ncccc4F)nc3c2-c2ccc3nccnc3c2)c1` [Example 37, 3-(4-amino-2-((3-fluoropyridin-2-yl)methyl)-7-(quinoxalin-6-yl)-2H-[1,2,3]triazolo[4,5-c]pyridin-6-yl)benzonitrile], for which the pEC50 in test [1] was 7.00 to 8.00. Besides, the pKi in test [2] is ≥ 8.00.

With `CCn1nccc1-c1c(-c2cccc(C#N)c2F)nc(N)c2nn(Cc3ccccn3)nc12` [Example 38, 3-(4-amino-7-(1-ethyl-1H-pyrazol-5-yl)-2-(pyridin-2-ylmethyl)-2H-[1,2,3]triazolo[4,5-c]pyridin-6-yl)-2-fluorobenzonitrile], the pEC50 in test [1] was ≥ 8.00. Further, in test [2], the pKi was ≥ 8.00.

For the compound `Cn1nccc1-c1c(-c2cccc(C#N)c2F)nc(N)c2nn(Cc3ccccn3)nc12` [Example 39, 3-(4-amino-7-(1-methyl-1H-pyrazol-5-yl)-2-(pyridin-2-ylmethyl)-2H-[1,2,3]triazolo[4,5-c]pyridin-6-yl)-2-fluorobenzonitrile], the pEC50 in test [1] is ≥ 8.00. The pKi in test [2] is ≥ 8.00.

For the compound `CC(C)n1nccc1-c1c(-c2cccc(C#N)c2F)nc(N)c2nn(Cc3ccccn3)nc12` [Example 40, 3-(4-amino-7-(1-isopropyl-1H-pyrazol-5-yl)-2-(pyridin-2-ylmethyl)-2H-[1,2,3]triazolo[4,5-c]pyridin-6-yl)-2-fluorobenzonitrile], in test [1], the pEC50 was ≥ 8.00. For the same compound, the pKi in test [2] was ≥ 8.00.

Turning to `Cc1ncoc1-c1c(-c2cccc(C#N)c2F)nc(N)c2nn(Cc3ccccn3)nc12` [Example 41, 3-(4-amino-7-(4-methyloxazol-5-yl)-2-(pyridin-2-ylmethyl)-2H-[1,2,3]triazolo[4,5-c]pyridin-6-yl)-2-fluorobenzonitrile], the pEC50 in test [1] was ≥ 8.00. The pKi in test [2] was ≥ 8.00.

For `Cc1nc(CO)c(-c2c(-c3cccc(C#N)c3F)nc(N)c3nn(Cc4ccccn4)nc23)o1` [Example 42, 3-(4-amino-7-(4-(hydroxymethyl)-2-methyloxazol-5-yl)-2-(pyridin-2-ylmethyl)-2H-[1,2,3]triazolo[4,5-c]pyridin-6-yl)-2-fluorobenzonitrile], the pEC50 in test [1] is 7.00 to 8.00. Besides, the pKi in test [2] was ≥ 8.00.

Turning to `N#Cc1cccc(-c2nc(N)c3nn(Cc4ccccn4)nc3c2-c2ccc3nccnc3c2)c1F` [Example 43, 3-(4-amino-2-(pyridin-2-ylmethyl)-7-(quinoxalin-6-yl)-2H-[1,2,3]triazolo[4,5-c]pyridin-6-yl)-2-fluorobenzonitrile], the pEC50 in test [1] was 6.00 to 7.00. Besides, the negative-log Ki (pKi) in test [2] was ≥ 8.00.

For the compound `Cn1ccc(Cn2nc3c(N)nc(-c4cccc(C#N)c4)c(-c4ccncn4)c3n2)n1` [Example 44, 3-(4-amino-2-((1-methyl-1H-pyrazol-3-yl)methyl)-7-(pyrimidin-4-yl)-2H-[1,2,3]triazolo[4,5-c]pyridin-6-yl)benzonitrile], the pEC50 in test [1] is ≥ 8.00. Further, in test [2], the pKi is ≥ 8.00.

As to `Cc1ncoc1-c1c(-c2cccc(C#N)c2)nc(N)c2nn(Cc3ccn(C)n3)nc12` [Example 45, 3-(4-amino-2-((1-methyl-1H-pyrazol-3-yl)methyl)-7-(4-methyloxazol-5-yl)-2H-[1,2,3]triazolo[4,5-c]pyridin-6-yl)benzonitrile], the pEC50 in test [1] is ≥ 8.00. In test [2], the pKi was ≥ 8.00.

On to `Cc1ncoc1-c1c(-c2cccc(C#N)c2)nc(N)c2nn(C(C)c3ccccn3)nc12` (stereo not shown) [Example 46, 3-(4-amino-7-(4-methyloxazol-5-yl)-2-(1-(pyridin-2-yl)ethyl)-2H-[1,2,3]triazolo[4,5-c]pyridin-6-yl)benzonitrile], for which, in test [1], the pEC50 was ≥ 8.00. Further, the negative-log Ki (pKi) in test [2] was ≥ 8.00.

In the case of `CC(c1ccccn1)n1nc2c(N)nc(-c3cccc(C#N)c3)c(-c3ccncn3)c2n1` (stereo not shown) [Example 47, 3-(4-amino-2-(1-(pyridin-2-yl)ethyl)-7-(pyrimidin-4-yl)-2H-[1,2,3]triazolo[4,5-c]pyridin-6-yl)benzonitrile], the pEC50 in test [1] was 6.00 to 7.00. Moreover, in test [2], the pKi was ≥ 8.00.

Regarding `Cc1ncoc1-c1c(-c2cccc(C#N)c2)nc(N)c2nn(CCc3ccccn3)nc12` [Example 48, 3-(4-amino-7-(4-methyloxazol-5-yl)-2-(2-(pyridin-2-yl)ethyl)-2H-[1,2,3]triazolo[4,5-c]pyridin-6-yl)benzonitrile], the pEC50 in test [1] was 7.00 to 8.00. For the same compound, the pKi in test [2] is ≥ 8.00.

As to `Cc1ncoc1-c1c(-c2cccc(C#N)c2F)nc(N)c2nn(CCc3ccccn3)nc12` [Example 49, 3-(4-amino-7-(4-methyloxazol-5-yl)-2-(2-(pyridin-2-yl)ethyl)-2H-[1,2,3]triazolo[4,5-c]pyridin-6-yl)-2-fluorobenzonitrile], in test [1], the pEC50 is 7.00 to 8.00. For the same compound, the pKi in test [2] is ≥ 8.00.
